{
  "source": "patent US20110144125A1",
  "about": "“Anti-Arrhythmia Agents, Methods of Their Use, Methods of Their Identification and Kits Therefore” (THE UAB RESEARCH FOUNDATION, priority 2008, published 2011)",
  "test_system": "rat left atrial appendage",
  "experiment": "ATXII-induced triggered activity and transition to automaticity in left atrial appendage",
  "conditions": "ATXII-treated appendages, ˜25 μM 2-APB",
  "text": "There are two types of afterdepolarizations; early afterdepolarizations (EADs) that occur early during repolarization and delayed afterdepolarizations (DADs) that occur in fully repolarized, resting myocytes (FIG. 4). Both EADs and DADs are defined as “triggered” activities as they require a preceding normal action potential to occur (FIG. 3B). One model to elicit EADs is to expose heart muscle or myocytes to Anemonia sulcata Toxin II (ATX II). This 47 amino acid peptide specifically enhances late sodium current and prolongs the action potential duration (FIG. 3D; middle panel). This leads to calcium loading of heart muscle followed by EADs during phase 2 or phase 3 of the action potential (FIGS. 3D & 5). These EADs, if of sufficient magnitude, produce ectopic mechanical events (FIG. 3B; ‡).\nIn embodiments of the assay an agent to induce arrhythmia will be introduced in the muscle. The arrhythmic agent may be chemical or physical. If the agent is chemical, it can be any chemical agent known by those skilled in the art to induce arrhythmia. The chemical agent will be introduced at a concentration sufficient to induce arrhythmia. If a certain type of arrhythmia is the subject of the assay (for example, triggered activity, tachycardia or any other type of arrhythmia), then the agent should be present at a concentration sufficient to produce the certain type of arrhythmia. One acceptable agent is anemone toxin II (“ATX II,”), the toxin of Anemone sulcata. ATX II is a sodium channel regulator.\nIt was tested whether the altered voltage-independent calcium homeostasis which 2-APB provokes is sufficient to initiate frank automaticity from triggered activity.",
  "data": [
    {"compound": "NCCOB(c1ccccc1)c1ccccc1", "note": "[2-APB, 2-aminoethoxydiphenyl borate]", "values": [
      {"measurement": "transition from triggered activity to STA", "value": "STA began to occur"}
    ]}
  ]
}
